From ChEMBL document CHEMBL1149699, “Structure-activity relationships of 3,4-dihydro-1H-quinazolin-2-one derivatives as potential CDK5 inhibitors” (Bioorg Med Chem, 2007) come the findings set out here.

For test [1], the target named is T1, Cyclin-dependent kinase 5/CDK5 activator 1 (Homo sapiens, UniProt Q00535). Nature of the test: Inhibition of human CDK5/p25 by HTRF assay. It is filed as protein-complex assay. (In TR-FRET formats the signal depends on donor and acceptor labels being close together.)
T1 sequence (Q00535 whole entry): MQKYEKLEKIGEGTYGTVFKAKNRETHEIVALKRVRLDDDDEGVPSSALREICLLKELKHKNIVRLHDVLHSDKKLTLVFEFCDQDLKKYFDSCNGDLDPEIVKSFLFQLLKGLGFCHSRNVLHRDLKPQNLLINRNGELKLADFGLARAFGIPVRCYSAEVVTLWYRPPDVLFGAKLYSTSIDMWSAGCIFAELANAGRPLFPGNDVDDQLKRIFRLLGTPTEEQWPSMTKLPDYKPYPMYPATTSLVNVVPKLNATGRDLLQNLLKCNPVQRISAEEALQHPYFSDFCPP
T1 sequence (Q15078 whole entry, further chain): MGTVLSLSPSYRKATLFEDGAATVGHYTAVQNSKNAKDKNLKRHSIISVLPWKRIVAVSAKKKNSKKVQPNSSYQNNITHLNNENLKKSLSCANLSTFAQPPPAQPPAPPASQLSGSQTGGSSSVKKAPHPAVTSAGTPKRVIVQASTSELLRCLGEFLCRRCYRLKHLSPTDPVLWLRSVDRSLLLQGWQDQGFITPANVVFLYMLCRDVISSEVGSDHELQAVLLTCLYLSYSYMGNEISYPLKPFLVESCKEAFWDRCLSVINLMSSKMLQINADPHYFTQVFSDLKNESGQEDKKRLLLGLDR
Test [2] has as its target T1, Cyclin-dependent kinase 5/CDK5 activator 1. Put plainly: Inhibition of human His-tagged p25/CDK5. It is filed as protein-complex assay.
The nature of test [3]: Inhibition of human His-tagged cyclin 2/CDK2 by HTRF assay.
The target in test [4] is Mitogen-activated protein kinase 14 (Homo sapiens, UniProt Q16539). Nature of the test: Inhibition of human p38 alpha.
Sequence of Mitogen-activated protein kinase 14 (Q16539 whole entry): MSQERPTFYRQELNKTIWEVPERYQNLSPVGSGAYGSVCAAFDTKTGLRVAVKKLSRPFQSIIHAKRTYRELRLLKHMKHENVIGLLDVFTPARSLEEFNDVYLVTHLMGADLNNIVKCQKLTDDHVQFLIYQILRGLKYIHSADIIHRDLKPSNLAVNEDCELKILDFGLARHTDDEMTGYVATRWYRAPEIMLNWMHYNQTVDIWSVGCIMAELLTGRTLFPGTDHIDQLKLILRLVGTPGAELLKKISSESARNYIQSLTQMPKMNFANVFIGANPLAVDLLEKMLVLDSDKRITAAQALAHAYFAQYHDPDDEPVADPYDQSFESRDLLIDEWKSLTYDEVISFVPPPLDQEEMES
Test [5] has as its target Mitogen-activated protein kinase 9 (Homo sapiens, UniProt P45984). Put plainly: Inhibition of human JNK2.
In test [6] the target is Mitogen-activated protein kinase 3 (Homo sapiens, UniProt P27361). Nature of the test: Inhibition of human Erk1.
Sequence of Mitogen-activated protein kinase 3 (P27361 whole entry): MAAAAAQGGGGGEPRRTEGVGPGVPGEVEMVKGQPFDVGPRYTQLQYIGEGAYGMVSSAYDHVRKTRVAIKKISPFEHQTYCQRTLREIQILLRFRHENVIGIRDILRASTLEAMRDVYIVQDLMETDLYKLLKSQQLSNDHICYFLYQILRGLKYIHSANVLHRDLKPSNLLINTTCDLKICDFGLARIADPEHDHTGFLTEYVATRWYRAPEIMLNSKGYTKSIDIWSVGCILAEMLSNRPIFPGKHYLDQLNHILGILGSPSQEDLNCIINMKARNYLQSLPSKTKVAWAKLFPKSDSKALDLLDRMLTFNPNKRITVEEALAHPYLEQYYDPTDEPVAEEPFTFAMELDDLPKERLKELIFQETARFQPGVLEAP
The nature of test [7]: Inhibition of human PKA.

SMILES strings stand for the structures.

Sequence of Mitogen-activated protein kinase 9 (P45984 whole entry): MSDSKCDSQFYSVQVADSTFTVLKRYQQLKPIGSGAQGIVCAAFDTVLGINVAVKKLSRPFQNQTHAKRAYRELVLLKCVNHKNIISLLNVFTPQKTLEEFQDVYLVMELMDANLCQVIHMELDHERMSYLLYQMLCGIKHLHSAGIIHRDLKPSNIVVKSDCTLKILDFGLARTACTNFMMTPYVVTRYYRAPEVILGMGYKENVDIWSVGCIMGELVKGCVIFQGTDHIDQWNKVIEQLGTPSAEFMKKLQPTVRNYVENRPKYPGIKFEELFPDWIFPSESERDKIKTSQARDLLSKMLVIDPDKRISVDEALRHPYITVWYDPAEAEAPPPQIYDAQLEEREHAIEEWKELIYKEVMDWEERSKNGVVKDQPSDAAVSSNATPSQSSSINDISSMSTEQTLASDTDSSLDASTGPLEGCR

On to `O=c1[nH]c2ccccc2n1-c1csc(-c2ccncc2)n1`, for which 1160 nM corresponded to half-maximal inhibition in test [1] (IC50).
As to `O=C1Nc2cccc(Cl)c2CN1c1csc(-c2ccncc2)n1`, the IC50 in test [1] stood at 332 nM.
Turning to `O=C1Nc2cc(-c3ccccc3)ccc2CN1c1csc(-c2ccncc2)n1`, the IC50 in test [1] was 113 nM.
Consider `O=C1Nc2ccccc2CN1c1nc(-c2ccccn2)cs1`, for which the IC50 in test [2] worked out at 7360 nM.
For `O=C1Nc2ccccc2CN1c1nc(-c2ccncc2)ns1`, the IC50 in test [1] came to 616 nM.
The molecule `O=C1Nc2ccccc2CN1c1nc(-c2cccnc2)cs1` returned an IC50 in test [2] of 399 nM.
In the case of `O=C1Nc2ccccc2CN1c1csc(-c2ccncc2)n1`, the IC50 in test [1] is 79 nM; in test [2], 79 nM; in test [3] it was 142 nM; in test [4], greater than 10000 nM; in test [5] it was greater than 10000 nM; in test [6], greater than 10000 nM. The molecule also yielded an IC50 in test [7] greater than 10000 nM.
Take `O=C1Nc2ccccc2CN1c1nc(-c2ccncc2)no1`: in test [1], the IC50 is greater than 10000 nM.
`Cc1ccc2c(c1)CN(c1csc(-c3ccncc3)n1)C(=O)N2` yielded an IC50 in test [1] of 165 nM.
The same measure, in the same setting: then `O=c1[nH]c2ccccc2c(=O)n1-c1csc(-c2ccncc2)n1`, with greater than 10000 nM.
On to `O=C1Nc2cc(F)ccc2CN1c1csc(-c2ccncc2)n1`, for which the IC50 in test [1] is 16 nM; in test [2], 16 nM; in test [3], 52 nM; in test [4], greater than 10000 nM; in test [5], greater than 10000 nM; in test [6], greater than 10000 nM. In addition, the IC50 in test [7] is greater than 10000 nM.
On to `O=C1Nc2ccccc2CN1c1ccc(-c2ccncc2)s1`, for which, in test [1], the IC50 was greater than 10000 nM.
`O=C1Nc2cc(CN3CCOCC3)ccc2CN1c1csc(-c2ccncc2)n1`: the IC50 in test [1] was 62 nM; in test [2] it was 62 nM; in test [3], 529 nM; in test [4] it was greater than 10000 nM; in test [5], greater than 10000 nM; in test [6] it was greater than 10000 nM. This molecule had an IC50 in test [7] greater than 10000 nM.
Consider `O=C(Nc1ccccc1)Nc1csc(-c2ccncc2)n1`, for which, in test [1], the IC50 stood at 2990 nM.
On the same count and under the same terms, to `O=C1Nc2cccc(CN3CCOCC3)c2CN1c1csc(-c2ccncc2)n1` belongs 284 nM; to `COc1cccc2c1CN(c1csc(-c3ccncc3)n1)C(=O)N2`, 362 nM.
Turning to `O=C1Nc2ccccc2CN1c1nc(-c2ccncc2)cs1`, the 50% inhibitory concentration (IC50) in test [1] and in test [2] was 77 nM throughout.
`CN1CCN(c2ccc3c(c2)CN(c2csc(-c4ccncc4)n2)C(=O)N3)CC1`: the IC50 in test [1] was found to be 1160 nM.
`O=C1Nc2ccccc2CN1c1cccc(-c2ccncc2)c1` returned an IC50 in test [1] greater than 10000 nM.
Still for that read-out and setting: then `O=C1Nc2cccc(F)c2CN1c1csc(-c2ccncc2)n1`, with 240 nM.
For `O=C1Nc2cc(Br)ccc2CN1c1csc(-c2ccncc2)n1`, in test [1], the IC50 turned out to be 38 nM.
Regarding `CCc1cc(-c2nc(N3Cc4ccccc4NC3=O)cs2)ccn1`, the IC50 in test [2] is 746 nM.
In turn, `Cc1cccc2c1CN(c1csc(-c3ccncc3)n1)C(=O)N2` displayed an IC50 in test [1] of 1260 nM.
In test [2], `CN1CCN(c2cccc(NC(=O)Nc3csc(-c4ccncc4)n3)n2)CC1` returned an IC50 of 15 nM.
Regarding `O=C1Nc2cccc(Br)c2CN1c1csc(-c2ccncc2)n1`, in test [1], inhibition was half-maximal at 228 nM (IC50).
Same read-out and setting: to `CN1CCN(c2cccc3c2CN(c2csc(-c4ccncc4)n2)C(=O)N3)CC1` belongs 829 nM.
The same measure, in the same setting: then `O=C(Nc1ccccn1)Nc1csc(-c2ccncc2)n1`, with 192 nM.
In the case of `O=C1Nc2ccc(F)cc2CN1c1csc(-c2ccncc2)n1`, in test [1], the IC50 was determined as 72 nM.

The term IC50 denotes the concentration at which inhibition is half-maximal.
